Results taken from patent US6951848B2, “Functionalized heterocycles as modulators of chemokine receptor function and methods of use therefor” (Millennium Pharmaceuticals, Inc.,, priority 2001, dated 2005).
Where a name gives a salt, the structure may show the parent alone.

tested on: not given; assay: not given; settings: not given

First: Cc1[nH]c2ccc(CN)cc2c1C(=O)OCc1ccccc1.Cl
Second: CNCCc1ccc2[nH]c(C)c(C(=O)OCc3ccccc3)c2c1 [Example 61, 2-Methyl-5-(2-methylamino-ethyl)-1H-indole-3-carboxylic acid benzyl ester]
The melting point of the first is higher: 260 to 261 °C for the first, 65 to 68 °C for the second.

First: CCN(CC)CCc1ccc2[nH]c(C)c(C(=O)O[C@@H](C)c3ccccc3)c2c1.Cl
Second: Cc1[nH]c2ccc(OCCN(C)C)cc2c1C(=O)O[C@@H](C)c1ccccc1 [Example 66, 5-(2-Dimethylamino-ethoxy)-2-methyl-1H-indole-3-carboxylic acid (S)-1-phenyl-ethyl ester]
The melting point of the first is lower: 95 to 97 °C for the first, 135 to 140 °C for the second.

First: Cc1[nH]c2ccc(OCCN3CCOCC3)cc2c1C(=O)OC(C)c1ccccc1.Cl (stereo not drawn)
Second: Cc1[nH]c2ccc(OCCN3CCCC3)cc2c1C(=O)OC(C)c1ccccc1.Cl (stereo not drawn)
The melting point of the first is lower: 45 to 55 °C for the first, 75 to 80 °C for the second.

Compared with `Cc1[nH]c2ccc(OCCN3CCN(C(=O)OC(C)(C)C)CC3)cc2c1C(=O)OCc1ccccc1` [Example 1, 5-[2-(4-tert-Butoxycarbonyl-piperazin-1-yl)-ethoxy]-2-methyl-1H-indole-3-carboxylic acid benzyl ester], `Cc1[nH]c2ccc(OCCN3CCN(C)CC3)cc2c1C(=O)OCc1ccccc1` [Example 3, 2-Methyl-5-[2-(4-methyl-piperazin-1-yl)-ethoxy]-1H-indole-3-carboxylic acid benzyl ester] is higher in melting point: 136 to 137 °C for the first, 143 to 145 °C for the second.

First: Cc1[nH]c2ccc(OCCN3CCC(C)C3)cc2c1C(=O)OCc1ccccc1 (stereo not drawn) [Example 4, 2-Methyl-5-[2-(3-methyl-pyrrolidin-1-yl)-ethoxy]-1H-indole-3-carboxylic acid benzyl ester]
Second: Cc1[nH]c2ccc(OCCN3CC[C@H](CO)C3)cc2c1C(=O)OCc1ccccc1 [Example 16, 5-[2-((S)-3-Hydroxymethyl-pyrrolidin-1-yl)-ethoxy]-2-methyl-1H -indole-3-carboxylic acid benzyl ester]
The melting point of the first is lower: 121 to 122 °C for the first, 126 to 127 °C for the second.

Compared with `Cc1[nH]c2ccc(OCCN3CCC(c4ccccc4)C3)cc2c1C(=O)OCc1ccccc1.Cl` (stereo not drawn) [Example 5, 1-[2-(3-benzyloxycarbonyl-2-methyl-1H-indol-5-yloxy)-ethyl]-3-phenyl-pyrrolidinium; Chloride], `Cc1[nH]c2ccc(OCCN3CCCC3c3ccccc3)cc2c1C(=O)OCc1ccccc1` (stereo not drawn) [Example 15, 2-Methyl-5-[2-(2-phenyl-pyrrolidin-1-yl)-ethoxy]-1H -indole-3-carboxylic acid benzyl ester] is higher in melting point: 118 to 121 °C for the first, 141 to 142 °C for the second.

First: Cc1[nH]c2ccc(OCCN(C(C)C)C(C)C)cc2c1C(=O)OCc1ccccc1 [Example 6, 5-(2-Diisopropylamino-ethoxy)-2-methyl-1H-indole-3-carboxylic acid benzyl ester]
Second: CCN(CC)CCOc1ccc2[nH]c(C)c(C(=O)OCc3ccccc3)c2c1 [Example 13, 5-(2-Diethylamino-ethoxy)-2-methyl-1H-indole-3-carboxylic acid benzyl ester]
The melting point of the first is lower: 121 to 123 °C for the first, 125 to 126 °C for the second.

First: CCN(CC)CCOc1ccc2c(c1)c(C(=O)OCc1ccccc1)c(C)n2Cc1ccccc1 [Example 7, 1-Benzyl-5-(2-diethylamino-ethoxy)-2-methyl-1H-indole-3-carboxylic acid benzyl ester]
Second: CCN(CC)CCOc1ccc2c(c1)c(C(=O)OCc1ccccc1)c(C)n2C [Example 8, 1-Methyl-5-(2-diethylamino-ethoxy)-2-methyl-1H-indole-3-carboxylic acid benzyl ester]
The melting point of the first is higher: 74 to 76 °C for the first, 73 to 74 °C for the second.

First: CCC(Oc1ccc2[nH]c(C)c(C(=O)OCc3ccccc3)c2c1)C(=O)N(CC)CC (stereo not drawn) [Example 9, 5-(1-Diethylcarbamoyl-propoxy)-2-methyl-1H-indole-3-carboxylic acid benzyl ester]
Second: CCN(CC)Cc1ccc2[nH]c(C)c(C(=O)OCc3ccccc3)c2c1 [Example 64, 5-Diethylaminomethyl-2-methyl-1H-indole-3-carboxylic acid benzyl ester]
The melting point of the first is higher: 129 to 131 °C for the first, 106 to 108 °C for the second.

First: Cc1[nH]c2ccc(OCCCCN3CCCC3)cc2c1C(=O)OCc1ccccc1 [Example 10, 2-Methyl-5-(4-pyrrolidin-1-yl-butoxy)-1H-indole-3-carboxylic acid benzyl ester]
Second: Cc1[nH]c2ccc(OCCN3CCCC3)cc2c1C(=O)OCc1ccccc1 [Example 69, 2-Methyl-5-(pyrrolidin-1-yl-ethoxy)-1H-indole-3-carboxylic acid benzyl ester]
The melting point of the first is higher: 152 to 155 °C for the first, 110 to 116 °C for the second.

Compared with `Cc1[nH]c2ccc(OCCN3CCCCCC3)cc2c1C(=O)OCc1ccccc1` [Example 11, 5-(2-Azepan-1-yl-ethoxy)-2-methyl-1H-indole-3-carboxylic acid benzyl ester], `Cc1[nH]c2ccc(OCCN3CCCCC3)cc2c1C(=O)OCc1ccccc1` [Example 12, 2-Methyl-5-(2-piperidin-1-yl-ethoxy)-1H-indole-3-carboxylic acid benzyl ester] is lower in melting point: 141 to 142 °C for the first, 140 to 141 °C for the second.

First: Cc1[nH]c2ccc(OCCN3CC(C)(C)C(C)(C)C3)cc2c1C(=O)OCc1ccccc1 [Example 14, 2-Methyl-5-[2-(3,3,4,4-tetramethyl-pyrrolidin-1-yl)-ethoxy]-1H-indole-3-carboxylic acid benzyl ester]
Second: CCCN(CCC)CCOc1ccc2[nH]c(C)c(C(=O)OCc3ccccc3)c2c1 [Example 18, 5-(2-Dipropylamino-ethoxy)-2-methyl-1H-indole-3-carboxylic acid benzyl ester]
The melting point of the first is higher: 181 to 182 °C for the first, 123 to 125 °C for the second.

Compared with `Cc1[nH]c2ccc(OCCN3CCCC3c3cccnc3)cc2c1C(=O)OCc1ccccc1` (stereo not drawn) [Example 17, 2-Methyl-5-[2-(2-pyridin-3-yl-pyrrolidin-1-yl)-ethoxy]-1H-indole-3-carboxylic acid benzyl ester], `Cc1[nH]c2ccc(CCN3CCCC3)cc2c1C(=O)OCc1ccccc1.Cl` [Example 56, 2-Methyl-5-(2-pyrrolidin-1-yl-ethyl)-1H-indole-3-carboxylic acid benzyl ester hydrochloride] is lower in melting point: 126 to 127 °C for the first, 76 to 78 °C for the second.

First: Cc1[nH]c2ccc(CCN3CCN(C)CC3)cc2c1C(=O)OCc1ccccc1 [Example 57, 2-Methyl-5-[2-(4-methyl-piperazin-1-yl)-ethyl]-1H-indole-3-carboxylic acid benzyl ester]
Second: Cc1[nH]c2ccc(CCN3CCCCC3)cc2c1C(=O)OCc1ccccc1 [Example 59, 2-Methyl-5-(2-piperidin-1-yl-ethyl)-1H-indole-3-carboxylic acid benzyl ester]
The melting point of the first is higher: 167 to 168 °C for the first, 159 to 161 °C for the second.

First: Cc1[nH]c2ccc(CCN(C)C3CCCCC3)cc2c1C(=O)OCc1ccccc1 [Example 58, 5-[2-(Cyclohexyl-methyl-amino)-ethyl]-2-methyl-1H-indole-3-carboxylic acid benzyl ester]
Second: Cc1[nH]c2ccc(CCN(C)C3CCOCC3)cc2c1C(=O)OCc1ccccc1 [Example 62, 2-Methyl-5-{2-[methyl-(tetrahydro-pyran-4-yl)-amino]-ethyl}-1H-indole-3-carboxylic acid benzyl ester]
The melting point of the first is higher: 122 to 124 °C for the first, 109 to 111 °C for the second.

Compared with `Cc1[nH]c2ccc(CCN(CC(C)C)CC(C)C)cc2c1C(=O)OCc1ccccc1` [Example 60, 5-(2-Diisobutylamino-ethyl)-2-methyl-1H-indole-3-carboxylic acid benzyl ester], `Cc1[nH]c2ccc(CCNC3CCCCC3)cc2c1C(=O)OCc1ccccc1` [Example 71, 5-(2-Cyclohexylamino-ethyl)-2-methyl-1H-indole-3-carboxylic acid benzyl ester] is lower in melting point: 134 to 135 °C for the first, 97 to 100 °C for the second.

For `Cc1[nH]c2ccc(OC(C)C(C)N3CCCC3)cc2c1C(=O)OCc1ccccc1` (stereo not drawn) [Example 70, 2-Methyl-5-(1-methyl-2-pyrrolidin-1-yl-propoxy)-1H-indole-3-carboxylic acid benzyl ester], the melting point was 94 to 98 °C.

For `Cc1[nH]c2ccc(OCCN3CCNCC3)cc2c1C(=O)OCc1ccccc1` (as salt: hydrochloride) [Example 2, 1-[2-(3-benzyloxycarbonyl-2-methyl-1H-indole-5-yloxy)-ethyl]-piperazin-1-ium; Chloride], the melting point was 225 to 229 °C (dec.).

target: T1, CCR-5 (Homo sapiens, UniProt P51681); assay: 125I-gp120/sCD4/CCR-5 receptor binding assay; settings: membranes from CCR-5/L 1.2 cells, 3 nM sCD4, 0.1 nM 125I-gp120 (HIV-1 JR-FL); read-out: IC50 for inhibition of binding of sCD-4/GP-120 to CCR-5
T1 construct: expressed in transfected cells; host or cells: L1.2 cells (CCR-5/L1.2 transfectants), membranes
Description: CCR-5 Receptor Binding Assay The compounds of the present invention were evaluated using the following CCR-5 receptor binding assay. The ^125I-gp120/sCD4/CCR-5 binding assay was carried out similarly as described in Wu et al., Nature, 1996;384:179-183. Briefly, the envelope gp120 protein derived from HIV-1 JR-FL (Trkola et al., Nature, 1996;384:184-186), an M-tropic strain, was iodinated using solid phase lactoperoxidase to a specific activity of 20 μCi/μg. For each binding reaction (in a final volume of 100 μL binding buffer [50 mM HEPES, pH 7.5, 1 mM CaCl2, 5 mM MgCl2, and 0.5% BSA]), 25 μL (2.5 μg) of membranes prepared from CCR-5/L 1.2 cells were mixed with 25 μL (3 nM) sCD4, followed by 25 μL (0.1 nM) radio-labeled gp120 in the presence or absence of 25 μL compound dissolved in DMSO (final concentration of DMSO 0.5%). The reactions were incubated at room temperature for 45 to 60 minutes and stopped by transferring the mixture to GFB filter plates, which were then washed 3 to 4 times with binding buffer containing 0.5 M NaCl. The plates were dried and MicroScint scintillation fluid was added before counting. […] The compounds of Examples 56 and 66 had IC50s of about […]. […] Preferred compounds can inhibit the binding of sCD-4/GP-120 to CCR-5 with IC50s of about 10 μM to about 100 μM or about 1 nM to about 10 μM

T1 sequence (P51681 whole entry): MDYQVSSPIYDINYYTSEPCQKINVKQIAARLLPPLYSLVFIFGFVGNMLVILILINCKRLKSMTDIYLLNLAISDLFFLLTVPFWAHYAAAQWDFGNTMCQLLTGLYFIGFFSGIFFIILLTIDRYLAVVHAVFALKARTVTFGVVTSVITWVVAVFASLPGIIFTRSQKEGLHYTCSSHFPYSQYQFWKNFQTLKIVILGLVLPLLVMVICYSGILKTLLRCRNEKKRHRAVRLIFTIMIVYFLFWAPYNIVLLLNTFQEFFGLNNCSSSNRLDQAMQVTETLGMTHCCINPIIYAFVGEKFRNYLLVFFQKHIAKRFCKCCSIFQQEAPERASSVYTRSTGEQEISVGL

`Cc1[nH]c2ccc(OCCN3CCC(c4ccccc4)C3)cc2c1C(=O)OCc1ccccc1.Cl` (stereo not drawn) [Example 5, 1-[2-(3-benzyloxycarbonyl-2-methyl-1H-indol-5-yloxy)-ethyl]-3-phenyl-pyrrolidinium; Chloride] and `Cc1[nH]c2ccc(OCCN3CCCC3)cc2c1C(=O)OCc1ccccc1` [Example 69, 2-Methyl-5-(pyrrolidin-1-yl-ethoxy)-1H-indole-3-carboxylic acid benzyl ester] are within error of each other in IC50: 18 µM for the first, 20.3 ± 2.8 µM for the second.

First: CCN(CC)CCOc1ccc2c(c1)c(C(=O)OCc1ccccc1)c(C)n2Cc1ccccc1 [Example 7, 1-Benzyl-5-(2-diethylamino-ethoxy)-2-methyl-1H-indole-3-carboxylic acid benzyl ester]
Second: Cc1[nH]c2ccc(OCCN(C)C)cc2c1C(=O)O[C@@H](C)c1ccccc1 [Example 66, 5-(2-Dimethylamino-ethoxy)-2-methyl-1H-indole-3-carboxylic acid (S)-1-phenyl-ethyl ester]
The IC50 of the first is 3.8-fold higher: 18.2 µM for the first, ~4.8 µM for the second.

Going from `Cc1[nH]c2ccc(NCCN3CCCC3)cc2c1C(=O)OCc1ccccc1` [Example 20, 2-Methyl-5-(2-pyrrolidine-1-yl-ethylamino)-1H-indole-3-carboxylic acid benzyl ester] to `Cc1[nH]c2ccc(CCN3CCCC3)cc2c1C(=O)OCc1ccccc1.Cl` [Example 56, 2-Methyl-5-(2-pyrrolidin-1-yl-ethyl)-1H-indole-3-carboxylic acid benzyl ester hydrochloride], the IC50 falls from 17.5 µM to ~4.8 µM (3.6-fold).

Compared with `Cc1[nH]c2ccc(CCN(C)C3CCOCC3)cc2c1C(=O)OCc1ccccc1` [Example 62, 2-Methyl-5-{2-[methyl-(tetrahydro-pyran-4-yl)-amino]-ethyl}-1H-indole-3-carboxylic acid benzyl ester], `Cc1[nH]c2ccc(OC(C)C(C)N3CCCC3)cc2c1C(=O)OCc1ccccc1` (stereo not drawn) [Example 70, 2-Methyl-5-(1-methyl-2-pyrrolidin-1-yl-propoxy)-1H-indole-3-carboxylic acid benzyl ester] is 2.5-fold lower in IC50: 13.9 ± 1.6 µM for the first, 5.52 ± 1.1 µM for the second. The second is the more potent here.
